Here are results for 9 compounds from ChEMBL document CHEMBL1148003 (Bioorg Med Chem, 2007).

Test [1] relates to Cornu aspersum. The experiment in a line: Inhibition of snail beta-D-mannosidase at 1 mM.
The nature of test [2]: Inhibition of jack bean alpha-D-mannosidase. More on the design: species or system Canavalia ensiformis.
A short description of test [3]: Inhibition of green coffee bean alpha-D-galactosidase at 1 mM.
Test [4] is described as follows: Inhibition of snail beta-D-mannosidase. Set-up: species or system Cornu aspersum.
Test [5] in a line: Inhibition of almond beta-D-glucosidase. Set-up: species or system Prunus dulcis.
The nature of test [6]: Inhibition of Escherichia coli beta-D-galactosidase.
The nature of test [7]: Inhibition of bovine kidney alpha-L-fucosidase. Set-up: species or system Bos taurus.
The nature of test [8]: Inhibition of green coffee bean alpha-D-galactosidase.
The nature of test [9]: Inhibition of Aspergillus wentii beta-D-mannosidase.
Test [10] is filed under the species Bos taurus. The experiment in a line: Inhibition of bovine kidney alpha-L-fucosidase at 1 mM.
For test [11], the target named is T1, Glucoamylase, intracellular sporulation-specific (Saccharomyces cerevisiae S288c) (UniProt P08019).
T1 sequence (whole entry): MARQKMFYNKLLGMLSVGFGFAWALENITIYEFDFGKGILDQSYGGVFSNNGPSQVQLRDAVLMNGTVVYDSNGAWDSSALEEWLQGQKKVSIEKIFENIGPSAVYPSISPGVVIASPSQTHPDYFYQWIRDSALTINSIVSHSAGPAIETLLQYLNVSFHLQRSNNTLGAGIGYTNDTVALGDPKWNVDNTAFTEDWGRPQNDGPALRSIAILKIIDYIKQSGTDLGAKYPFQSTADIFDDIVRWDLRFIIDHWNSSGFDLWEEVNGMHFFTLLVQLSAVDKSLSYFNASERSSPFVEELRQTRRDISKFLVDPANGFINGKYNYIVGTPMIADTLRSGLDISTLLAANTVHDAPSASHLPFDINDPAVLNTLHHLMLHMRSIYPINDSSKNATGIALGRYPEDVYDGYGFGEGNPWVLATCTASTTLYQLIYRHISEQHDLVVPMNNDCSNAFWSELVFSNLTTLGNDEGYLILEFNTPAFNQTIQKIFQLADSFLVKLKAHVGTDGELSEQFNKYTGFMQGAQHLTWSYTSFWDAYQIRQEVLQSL
The experiment in a line: Inhibition of yeast alpha-D-glucosidase at 1 mM.

Test [12] has as its system Escherichia coli. Briefly: Inhibition of Escherichia coli beta-D-galactosidase at 1 mM.

As for `O[C@H]1[C@H](O)CN[C@H]1O`, the inhibition in test [1] is 50%; in test [3] it was 40%. The affinity in [2] corresponds to a Ki of 5 µM. In addition, the IC50 in test [4] was 1 mM; in test [5], 200 µM.

`O[C@@H]1C=NC[C@@H]1O`: the Ki in test [6] is 200 nM; in test [2] it was 2 µM; in [8], 200 nM; in test [5], 300 nM. Besides, it took 1 mM to reach half-maximal inhibition in [7] (IC50).

For the compound `OC[C@H]1NC(O)[C@H](O)[C@@H](O)[C@@H]1O` (stereo not given in full) [NOJIRIMYCIN], the values for the Ki in test [2], in test [9] and in [5] were 500 µM, 900 µM and 900 nM, respectively.

In [2], `O=S(=O)(O)C1NC[C@@H](O)[C@@H]1O` (stereo not given in full) yielded a Ki of 5 µM. Further, the IC50 in test [5] was found to be 180 µM.

Consider `O=S(=O)(O)C1NC[C@H](O)[C@H]1O` (stereo not given in full), for which the inhibition came to 28% in test [1], 23% in test [10] and 20% in [3]. Also, in test [5], the midpoint of inhibition, the IC50, lay at 2000 µM.

For the compound `O[C@@H]1CN=C[C@@H]1O`, in test [6], the IC50 came out at 1 mM. Also, the results for the inhibition constant Ki in test [7] and in test [2] were 3000 nM and 20 µM, respectively.

With `O[C@@H]1CNC[C@H]1O`, the inhibition worked out at 43% in test [11], 20% in test [12] and 27% in [3].

With `OC[C@H]1NC[C@@H](O)[C@@H]1O`, the IC50 in test [2] was 200 µM; in test [5], 500 µM.

On to `OC[C@H]1N=C[C@@H](O)[C@@H]1O` [NECTRISINE], for which the IC50 in test [2] worked out at 3 µM; in [5], 2.2 µM. Further, the affinity in test [9], expressed as Ki, was 42 µM.

By inhibition is commonly meant the percentage by which the read-out fell short of the control. A higher inhibition goes with strong suppression. As usually defined, the Ki is the dissociation constant of the complex between target and ligand, obtained from inhibition or displacement. The term IC50 denotes the concentration needed to halve the response being measured. Low readings indicate higher potency, high ones lower potency.
